Measurements as given in patent US9493396B2, “Substituted naphthalene compounds as calcium sensing receptor modulators” (LUPIN ATLANTIS HOLDINGS SA, priority 2013, dated 2016).
pEC50: −log10 of the molar value. Where a name gives a salt, the structure may show the parent alone.

Biological target: T1, Calcium sensing receptor (hCaSR) (Homo sapiens, UniProt P41180)
T1 construct: expressed in transfected cells; host or cells: HEK293 (stably transfected)
T1 sequence (P41180 20-1078): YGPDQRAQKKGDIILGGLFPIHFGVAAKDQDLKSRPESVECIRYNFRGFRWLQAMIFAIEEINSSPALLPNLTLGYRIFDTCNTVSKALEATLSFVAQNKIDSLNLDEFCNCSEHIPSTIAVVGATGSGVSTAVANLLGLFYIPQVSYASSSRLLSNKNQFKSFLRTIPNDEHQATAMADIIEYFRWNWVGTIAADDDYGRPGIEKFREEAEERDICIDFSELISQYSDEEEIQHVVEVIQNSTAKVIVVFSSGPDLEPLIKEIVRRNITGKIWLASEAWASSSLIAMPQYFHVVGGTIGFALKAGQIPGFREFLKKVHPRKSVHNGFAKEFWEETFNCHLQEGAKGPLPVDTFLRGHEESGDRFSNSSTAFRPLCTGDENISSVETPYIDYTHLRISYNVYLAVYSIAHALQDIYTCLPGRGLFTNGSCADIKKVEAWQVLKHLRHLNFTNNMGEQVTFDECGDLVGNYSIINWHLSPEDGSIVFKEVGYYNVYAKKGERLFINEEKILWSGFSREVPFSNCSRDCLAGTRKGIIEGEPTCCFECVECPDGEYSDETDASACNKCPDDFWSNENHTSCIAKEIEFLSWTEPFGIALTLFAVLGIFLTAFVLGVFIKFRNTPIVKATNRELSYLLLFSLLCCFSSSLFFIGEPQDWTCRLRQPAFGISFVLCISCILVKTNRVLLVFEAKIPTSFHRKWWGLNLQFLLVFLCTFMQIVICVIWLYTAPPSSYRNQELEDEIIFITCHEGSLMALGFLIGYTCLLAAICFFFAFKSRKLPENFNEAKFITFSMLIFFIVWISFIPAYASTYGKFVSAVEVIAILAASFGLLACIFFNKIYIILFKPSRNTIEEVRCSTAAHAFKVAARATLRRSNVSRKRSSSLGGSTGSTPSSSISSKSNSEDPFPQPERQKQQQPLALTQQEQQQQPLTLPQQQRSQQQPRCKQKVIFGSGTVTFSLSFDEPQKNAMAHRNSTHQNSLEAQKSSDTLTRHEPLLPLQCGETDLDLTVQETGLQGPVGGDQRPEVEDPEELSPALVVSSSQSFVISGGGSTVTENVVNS
Assay: In-vitro assay of calcimimetics through modulation of calcium sensing receptor (intracellular calcium increase, FLIPR)
Type: cell-based
Settings: stably transfected HEK293 cells expressing hCaSR; Fluo4NW dye; 0.3 mM CaCl2; 8-point assay; read-out: EC50 in range
Outline: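 Stably transfected HEK293 cells expressing hCaSR, loaded 30 min with Fluo4NW dye. Intracellular calcium rise measured on FLIPR in 20 mM HEPES buffer with 0.3 mM CaCl2. EC50 derived from 8-point concentration series.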

Row | Compound | pEC50
1 | COc1cccc([C@@H](C)NC(C)c2cc(-c3ccc(OC(F)(F)F)cc3)c3ccccc3c2)c1 (stereo partly drawn) [Example 19, (1R)-1-(3-Methoxyphenyl)-N-(1-(4-(4-(trifluoromethoxy)phenyl)naphthalen-2-yl)ethyl)ethanamine hydrochloride] | > 7.70
2 | COc1cccc([C@@H](C)NC(C)c2cc(-c3ccc(OC)c(F)c3)c3ccccc3c2)c1 (stereo partly drawn) [Example 7, 1-(4-(3-Fluoro-4-methoxyphenyl)naphthalen-2-yl)-N-((R)-1-(3-methoxyphenyl)ethyl)ethanamine hydrochloride] | > 7.70
3 | COc1cccc([C@@H](C)NC(C)c2cc(-c3ccc(C)c(CCC(=O)O)c3)c3ccccc3c2)c1 (stereo partly drawn) [Example 137, 3-(5-(3-(1-(((R)-1-(3-Methoxyphenyl)ethyl)amino)ethyl)naphthalen-1-yl)-2-methylphenyl) propanoic acid hydrochloride] | > 7.70

More lines, now with the values ahead:

Row | pEC50 | Compound
4 | 6.40 to 7.30 | COc1cccc([C@@H](C)NC(C)c2cc(-c3ccc(C(=O)O)cc3)c3ccccc3c2)c1 (stereo partly drawn) [Example 119, 4-(3-(1-(((R)-1-(3-Methoxyphenyl)ethyl)amino)ethyl)naphthalen-1-yl)benzoic acid hydrochloride]
5 | 7.30 to 7.70 | COc1cc([C@@H](C)NCc2cc(-c3ccc(C(F)(F)F)cc3)c3ccccc3c2)ccc1F [Example 2, (R)-1-(4-Fluoro-3-methoxyphenyl)-N-((4-(4-(trifluoromethyl)phenyl)naphthalen-2-yl)methyl)ethanamine hydrochloride]
6 | > 7.70 | CCOc1cccc([C@@H](C)NC(C)c2cc(-c3ccc(C)c(CCC(=O)O)c3)c3ccccc3c2)c1 (stereo partly drawn) [Example 157, 3-(5-(3-(1-(((R)-1-(3-Ethoxyphenyl)ethyl)amino)ethyl)naphthalen-1-yl)-2-methylphenyl) propanoic acid hydrochloride]
